Test [1] relates to Fos immunoreactivity in Arc, PVN and NTS. Briefly: Fos immunohistochemistry after SC administration. The format is in vivo, mouse. The following applies: 90 minutes after SC 5 mg/kg, fasted mice. As for the experimental part: For Fos immunohistochemical processing, overnight fasted mice (n=5 mice/group) were treated SC with saline, [Dpr^1]PrRP31, [Dpr(oct)^1]PrRP31, [Dpr(myr)^1]PrRP31 or [Dpr(palm)^1]PrRP31 (dose 5 mg/kg). Ninety minutes after SC injection, the mice were deeply anesthetized with pentobarbital (50 mg/kg, IP) and perfused transcardially with 0.1 M phosphate buffer (PB, pH 7.4) containing 4% paraformaldehyde, 0.1% glutaraldehyde, and 10% picric acid (w/w). Then the brains were removed, postfixed in the same fixative overnight at 4° C., and infiltrated with 30% sucrose in 0.1 M PB for 48 h at 4° C. Before sectioning, the brains were rapidly (20 sec) frozen in cold isopentane (−30/−40° C.) and placed into a Reichert cryocut device adjusted to −16° C. for 1 h. 30 μm coronal sections were cut from the brains and collected as free floating in cold (4° C.) PB. […]
An identical set of mice was used for determination of Fos immunoreactivity in NTS, PVN, and Arc. […] Quantitative assessment was performed from the images captured with a Canon digital camera (PowerShot S40) and Leica DMLS light microscope in a computer screen obtained from 5-6 brain sections per animal. […] The counting of Fos-positive neurons was done under blinded conditions (the counted slides from each animal were analyzed independently and randomly and encoded by other person).

Test [2] has as its system MAPK/ERK1/2 signaling pathway in RC-4B/C cells. Description: MAPK/ERK1/2 signaling in RC-4B/C cells (Western blot). The following applies: 10^−6 mol·l^−1, 5 minute incubation. It counts as cell-based, rat. In general terms: Immunoblotting shows a protein as a band on a membrane.

Where a SMILES comes first, the peptide text is derived from it. [ ]: non-standard residue; d: D form. The star is where a group is joined. Palmitoyl = CCCCCCCCCCCCCCCC(=O)*; Myristoyl = CCCCCCCCCCCCCC(=O)*; Nle = CCCC[C@H](N)C(=O)O; Dap = NC[C@H](N)C(=O)O

Take `CCCCCCCCCCCCCCCC(=O)NC[C@H](N)C(=O)N[C@@H](CCCNC(=N)N)C(=O)N[C@@H](C)C(=O)N[C@@H](Cc1c[nH]cn1)C(=O)N[C@@H](CCC(N)=O)C(=O)N[C@@H](Cc1c[nH]cn1)C(=O)N[C@@H](CO)C(=O)N[C@@H](CCCC)C(=O)N[C@@H](CCC(=O)O)C(=O)N[C@H](C(=O)N[C@@H](CCCNC(=N)N)C(=O)N[C@H](C(=O)N1CCC[C@H]1C(=O)N[C@@H](CC(=O)O)C(=O)N[C@H](C(=O)N[C@@H](CC(N)=O)C(=O)N1CCC[C@H]1C(=O)N[C@@H](C)C(=O)N[C@@H](Cc1c[nH]c2ccccc12)C(=O)N[C@@H](Cc1ccc(O)cc1)C(=O)N[C@H](C(=O)NCC(=O)N[C@@H](CCCNC(=N)N)C(=O)NCC(=O)N[C@H](C(=O)N[C@@H](CCCNC(=N)N)C(=O)N1CCC[C@H]1C(=O)N[C@H](C(=O)NCC(=O)N[C@@H](CCCNC(=N)N)C(=O)N[C@@H](Cc1ccccc1)C(N)=O)C(C)C)[C@@H](C)CC)[C@@H](C)O)[C@@H](C)CC)[C@@H](C)O)[C@@H](C)O` [Analog 6] (H-[Dap](Palmitoyl)RAHQHS[Nle]ETRTPDINPAWYTGRGIRPVGRF-NH2): the “Neural activity, Fos immunoreactivity” value in test [1] is “significantly increased”. The ERK signaling result in test [2] was “agonist”.

Regarding `CCCCCCCCCCCCCC(=O)NC[C@H](N)C(=O)N[C@@H](CCCNC(=N)N)C(=O)N[C@@H](C)C(=O)N[C@@H](Cc1c[nH]cn1)C(=O)N[C@@H](CCC(N)=O)C(=O)N[C@@H](Cc1c[nH]cn1)C(=O)N[C@@H](CO)C(=O)N[C@@H](CCCC)C(=O)N[C@@H](CCC(=O)O)C(=O)N[C@H](C(=O)N[C@@H](CCCNC(=N)N)C(=O)N[C@H](C(=O)N1CCC[C@H]1C(=O)N[C@@H](CC(=O)O)C(=O)N[C@H](C(=O)N[C@@H](CC(N)=O)C(=O)N1CCC[C@H]1C(=O)N[C@@H](C)C(=O)N[C@@H](Cc1c[nH]c2ccccc12)C(=O)N[C@@H](Cc1ccc(O)cc1)C(=O)N[C@H](C(=O)NCC(=O)N[C@@H](CCCNC(=N)N)C(=O)NCC(=O)N[C@H](C(=O)N[C@@H](CCCNC(=N)N)C(=O)N1CCC[C@H]1C(=O)N[C@H](C(=O)NCC(=O)N[C@@H](CCCNC(=N)N)C(=O)N[C@@H](Cc1ccccc1)C(N)=O)C(C)C)[C@@H](C)CC)[C@@H](C)O)[C@@H](C)CC)[C@@H](C)O)[C@@H](C)O` [Analog 5] (H-[Dap](Myristoyl)RAHQHS[Nle]ETRTPDINPAWYTGRGIRPVGRF-NH2), the “Neural activity, Fos immunoreactivity” value in test [1] was “significantly increased”. Moreover, in test [2], the ERK signaling result is reported as “agonist”.
